{"source": "patent US10273264B2", "about": "“Cortistatin analogues and syntheses and uses thereof” (President and Fellows of Harvard College, priority 2015, dated 2019)", "origin": "cited, not measured here", "key": {"CDK19": {"target": "CDK19 (Homo sapiens, UniProt Q9BWU1)", "sequence (Q9BWU1 whole entry)": "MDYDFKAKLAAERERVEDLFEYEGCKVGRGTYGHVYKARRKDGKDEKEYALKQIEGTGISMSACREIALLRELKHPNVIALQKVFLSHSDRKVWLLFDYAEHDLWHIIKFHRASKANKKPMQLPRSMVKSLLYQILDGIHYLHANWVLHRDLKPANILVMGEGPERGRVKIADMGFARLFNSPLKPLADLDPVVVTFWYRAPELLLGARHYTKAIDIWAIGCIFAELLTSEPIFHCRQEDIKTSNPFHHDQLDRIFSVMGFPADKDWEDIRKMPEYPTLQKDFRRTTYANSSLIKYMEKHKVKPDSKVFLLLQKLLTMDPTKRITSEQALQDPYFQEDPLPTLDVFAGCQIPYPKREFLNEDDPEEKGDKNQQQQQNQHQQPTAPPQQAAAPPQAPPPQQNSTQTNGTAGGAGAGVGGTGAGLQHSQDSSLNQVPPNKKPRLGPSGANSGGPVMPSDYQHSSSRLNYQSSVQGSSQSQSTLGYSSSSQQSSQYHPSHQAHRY", "settings": "reported, Cee et al. and US 20120071477"}, "[1]": {"test_system": "beta-catenin activated transcription", "settings": "reporter gene assay; as described in PCT/US2014/72365"}, "[2]": {"test_system": "Wnt/beta-catenin target genes in AML cells", "settings": "as described in PCT/US2014/72365"}, "STAT1 phosphorylation": {"test_system": "STAT1 phosphorylation", "settings": "as described in PCT/US2014/72365"}, "AML cell lines": {"test_system": "AML cell lines", "settings": "in vitro; as described in PCT/US2014/72365"}, "AML": {"test_system": "AML", "settings": "in vivo; as described in PCT/US2014/72365"}, "[3]": {"test_system": "cell lines derived from patients with MPNs", "settings": "as described in PCT/US2014/72365"}, "PMF": {"test_system": "PMF", "settings": "as described in PCT/US2014/72365"}}, "data": [{"substance": "cortistatin A", "values": [{"measurement": "binding to CDK19", "setting": "CDK19", "result": "bind"}, {"measurement": "inhibition of beta-catenin activated transcription", "setting": "[1]", "result": "inhibits"}, {"measurement": "inhibition of expression of putative Wnt/beta-catenin target genes", "setting": "[2]", "result": "inhibits"}, {"measurement": "inhibition of interferon-gamma-stimulated STAT1 phosphorylation", "setting": "STAT1 phosphorylation", "result": "inhibits"}, {"measurement": "inhibition of proliferation of AML cell lines", "setting": "AML cell lines", "result": "inhibit"}, {"measurement": "inhibition of AML progression", "setting": "AML", "result": "inhibits"}, {"measurement": "inhibition of proliferation of MPN patient-derived cell lines", "setting": "[3]", "result": "inhibits"}, {"measurement": "efficacy in an in vivo model of PMF", "setting": "PMF", "result": "efficacious"}]}]}
